Reference: patent US20240018472A1, “ENHANCEMENT OF EXTRACELLULAR VESICLE PRODUCTION BY LYSOSOME INHIBITOR” (ExoTop Theragnostics Inc., priority 2022, published 2024)
Entries after “also recorded” stand apart in the source; their conditions may differ.

Tests used:
[1] = test system: human MSCs; experiment: Intracellular acidification of MSCs, lysotracker red staining of acidic organelles; format: cell-based; details: MSCs cultured in CDPF with lysosome inhibitor vs CCM and CDPF
Protocol: The plate was incubated again.
Human MSCs were cultured in different media including complete culture medium (CCM), CDPF, and CDPF with lysosome inhibitor. The acidic organelles in live stem cells were stained by lysotracker red.

[2] = test system: CD63; experiment: CD63 ELISA of culture media, secretion of EVs (CD63+ particles) from stem cells; format: cell-based, human
Protocol: (§6) Mesenchymal stem cells were seeded on the plate at a density of ˜5000 cells/cm^2 and the plate was placed in a 5% CO2 humidified incubator. One day after the incubation, the culture media was aspirated to remove non-adherent cells and switched to a fresh media. The plate was incubated again. After further culturing for around 3 to 5 days, the culture media was aspirated and replaced by CDPF and/or lysosome inhibitor medium. The cells were cultured in the CDPF and/or lysosome inhibitor medium for 12, 24, or 48 hours. After the designated period of culturing, the culture media was collected and cell lysis buffer was immediately added to the cells on the plate. The collected media and cell lysate were each independently subjected to detection of the level of CD63 by ELISA and by qPCR, respectively.
(§7) To quantitatively compare CD63+ expression in CM cultured in various media including CCM, CDPF, and CDPF with lysosome inhibitor, enzyme-linked immunosorbent (ELISA) assays were performed.

[3] = test system: fatty acid synthase (FASN); experiment: qPCR RQ for fatty acid synthase (FASN) in MSCs in CCM or CDPF with or without lysosome inhibitor; format: cell-based
Protocol: as §6, §7

[4] = test system: CD63; experiment: CD63 ELISA of cell-cultured media, MSC with or without CQ in three media; format: cell-based; details: for CD63 levels (ELISA) vs corresponding medium without CQ: CQ 50 μM, 48 hours
Protocol: (§1) Mesenchymal stem cells (MSC) were cultured in complete media until reaching 70% overall cell confluence, and then were further cultured in three different media with or without chloroquine (CQ) at 50 μM for 48 hours: complete media (normal culture media containing serum), αMEM (minimum essential media), and CDPF (chemically defined protein-free media). The cell-cultured media were collected, filtered through a 0.2 μm filter, and assessed by CD63 ELISA to quantify the amount of CD63, a protein marker associated with small-sized EVs (FIG. 5A).
(§2) One-way ANOVA statistics were performed to analyze the data. In some cases, CD63 is a marker associated with small-sized EVs. In some cases, CD81 is a marker associated with EVs generally. P-value of greater than 0.05 was considered as not having a significant difference. *** indicates p≤0.001.

[5] = test system: CD63; experiment: qPCR of CD63 gene expression in MSCs with or without CQ; format: cell-based; details: CQ 50 μM, 48 hours; for gene expression of CD63 (in words): listed as CQ
Protocol: as §1
(§3) To further examine whether the upregulation of CD63 protein is a result of cytosolic secretion or heightened expression at the gene level, an analysis of alterations in the gene expression levels of extracellular vesicle-specific components in both complete and serum-free media was performed. The cultured cells were collected to perform qPCR analysis to detect three well-established EV markers: CD09, CD63, and CD81 (FIGS. 5B, 5C, and 5D).
as §2

[6] = test system: CD81; experiment: qPCR of CD81 gene expression in MSCs with or without CQ; format: cell-based; details: all media conditions (complete, αMEM, CDPF); CQ 50 μM, 48 hours; listed as CQ
Protocol: as §1, §3, §2

[7] = test system: CD09; experiment: qPCR of CD09 gene expression in MSCs with or without CQ; format: cell-based; details: all media conditions; CQ 50 μM, 48 hours
Protocol: as §1, §3, §2

[8] = test system: Mesenchymal stem cells (MSCs); experiment: Cellular morphology of MSCs after 48-hour culture with or without CQ; format: cell-based; details: CQ in serum-free media compared to complete media
Protocol: (§4) Mesenchymal stem cells (MSCs) were subjected to 48-hour culture in either complete media or serum-free media, followed by treatment with or without CQ to investigate alterations in cellular morphology. In addition, the gene expression levels of FASN (fatty acid synthase, a pivotal lipogenic enzyme) and SREBF-1(sterol regulatory element-binding transcription factor-1), two key factors involved in lipid metabolism, were assessed by qPCR.

[9] = test system: FASN (fatty acid synthase); experiment: qPCR of FASN gene expression in MSCs with or without CQ; format: cell-based; details: both serum-free media and complete media, 48-hour culture
Protocol: as §4

[10] = test system: SREBF-1 (sterol regulatory element-binding transcription factor-1); experiment: qPCR of SREBF-1 gene expression in MSCs with or without CQ; format: cell-based; details: both serum-free media and complete media, 48-hour culture
Protocol: as §4

[11] = test system: TSG-6 (tumor necrosis factor-inducible gene 6 protein); experiment: Protein expression of TSG-6, MSC with or without CQ; format: cell-based; details: regardless of the culture condition; CQ 50 μM, 48 hours
Protocol: (§5) Mesenchymal stem cells (MSC) were cultured in complete media until reaching 70% overall cell confluence, and then were further cultured in three different media with or without chloroquine (CQ) at 50 μM for 48 hours: complete media (normal culture media containing serum), αMEM (minimum essential media), and CDPF (chemically defined protein-free media). The cultured cells were analyzed for protein expression of TSG-6 (tumor necrosis factor-inducible gene 6 protein), Gal-3 (β-galactoside-binding lectin-3), and IDO and microRNA expression of miR-21 and miR-222. One-way ANOVA statistics were performed to analyze the data. P-value of greater than 0.05 was considered as not having a significant difference. *** indicates p≤0.001.

[12] = test system: Gal-3 (β-galactoside-binding lectin-3); experiment: Protein expression of Gal-3, MSC with or without CQ; format: cell-based; details: both αMEM media and CDPF media; CQ 50 μM, 48 hours
Protocol: as §5

[13] = test system: IDO; experiment: Protein expression of IDO, MSC with or without CQ; format: cell-based; details: both αMEM media and CDPF media; CQ 50 μM, 48 hours
Protocol: as §5

[14] = test system: miR-21; experiment: microRNA expression of miR-21, MSC with or without CQ; format: cell-based; details: CQ 50 μM, 48 hours
Protocol: as §5

[15] = test system: miR-222; experiment: microRNA expression of miR-222 (miR-22 in the source), MSC with or without CQ; format: cell-based; details: CQ 50 μM, 48 hours
Protocol: as §5

[16] = test system: human CD63 (hCD63) gene
Protocol: Mesenchymal stem cells were seeded on the plate at a density of 5000 cells/cm^2 and the plate was placed in a 5% CO2 humidified incubator. One day after the incubation, the culture media was aspirated to remove non-adherent cells and switched to a fresh media. The plate was incubated again. After further culturing for around 3 to 5 days, the culture media was aspirated and replaced by CDPF and/or lysosome inhibitor medium. The cells were cultured in the CDPF and/or lysosome inhibitor medium for 12, 24, or 48 hours. After the designated period of culturing, the culture media was collected and cell lysis buffer was immediately added to the cells on the plate. The collected media and cell lysate were each independently subjected to detection of the level of CD63 by ELISA and by qPCR, respectively.
To compare hCD63+ expression in MSCs cultured in various media including CCM, CDPF, and CDPF with lysosome inhibitor, RT-quantitative real-time PCR (RT-qPCR) assays were performed.

[17] = CDPF with lysosome inhibitor vs CDPF, RT-qPCR
[18] = complete media culture condition

SMILES: CCN(CC)CCCC(C)Nc1ccnc2cc(Cl)ccc12 (centres unmarked) [chloroquine]
- intracellular acidification of human MSCs [1]: suppresses
- secretion of EVs (CD63+ particles) from stem cells to cultured medium (in words) ([2]; CDPF with lysosome inhibitor vs CCM and CDPF): stimulated
- EV productions (CD63 ELISA), fold vs CCM or CDPF without lysosome inhibitor ([2]; CDPF with lysosome inhibitor vs CCM or CDPF): about 2.3 times
- expression of FASN, fold vs CCM ([3]; CCM with lysosome inhibitor vs CCM, RT-qPCR): about 25 times
- expression of FASN, fold vs CDPF without lysosome inhibitor [3, 17]: about 5 times
- gene expression of FASN (in words) ([3]; treatment with lysosome inhibitor, qPCR RQ): drastically induced
- CD63 levels (ELISA) vs corresponding medium without CQ ([4]; CDPF+CQ): higher
- CD63 levels (ELISA) vs corresponding medium without CQ ([4]; complete medium+CQ): higher
- increase in EVs (CD63+) quantity resulting from CQ treatment, serum-free vs complete media ([4]; serum-free media (αMEM and CDPF) compared to complete media): larger
- CD63 levels (ELISA) vs corresponding medium without CQ ([4]; αMEM+CQ): higher
- gene expression of CD63, fold vs corresponding medium without CQ ([5]; CDPF+CQ vs CDPF): more than 2.5 times
- gene expression of CD63 (in words) ([5]; complete media): no notable changes; also recorded: not seen
- gene expression of CD63 (in words) ([5]; serum-free media (αMEM, CDPF), p≤0.001): significant upregulation; also recorded: large increase
- gene expression of CD63, fold vs corresponding medium without CQ ([5]; αMEM+CQ vs αMEM): more than 2.5 times
- CD81 gene expression (in words) [6]: did not increase significantly; also recorded: remained similar
- CD09 expression (in words) [7]: elevated
- cellular morphology [8]: notable thinning of spindle-shaped cells and the emergence of numerous lipid body-like structures
- gene expression of FASN (in words) [9]: robust upregulation
- gene expression of SREBF-1 (in words) [10]: robust upregulation
- TSG-6 content levels (in words) [11]: did not stimulate an increase
- expression level of Gal-3 (in words) [12]: increased
- expression level of IDO (in words) [13]: increased
- expression of miR-21 (in words) [14, 18]: did not induce an increase
- expression of miR-21 (in words) ([14]; serum-free conditions): increased
- expression of miR-22 (in words) [15, 18]: did not induce an increase
- expression of miR-22 (in words) ([15]; serum-free conditions): increased
- expression of hCD63+ gene, fold vs MSCs cultured in CCM ([16]; CDPF with lysosome inhibitor vs CCM, RT-qPCR): about 10 times
- expression of hCD63+ gene, fold vs MSCs cultured in CDPF without lysosome inhibitor [16, 17]: about 5 times
- CD63 gene expression in MSCs (in words) ([16]; CDPF with lysosome inhibitor, qPCR): dramatic increase; also recorded: increased
